Measured values taken from PubChem BioAssay (NCI).
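Method: 48-hour compound exposure of cells in 96-well plates, five concentrations, linear interpolation of endpoints. TGI: concentration producing complete growth inhibition.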

Legend:
Assay in all cases: DTP human tumour cell line panel, 48 h
[1] = tested on: 786-0 renal
[2] = tested on: A498 renal
[3] = tested on: A549 NSCLC
[4] = tested on: ACHN renal
[5] = tested on: BT-549 breast
[6] = tested on: CAKI-1 renal
[7] = tested on: CCRF-CEM leukemia
[8] = tested on: COLO 205 colon
[9] = tested on: DU-145 prostate
[10] = tested on: EKVX NSCLC
[11] = tested on: HCC-2998 colon
[12] = tested on: HCT-116 colon
[13] = tested on: HCT-15 colon
[14] = tested on: HL-60(TB) leukemia
[15] = tested on: HOP-62 NSCLC
[16] = tested on: HOP-92 NSCLC
[17] = tested on: HS 578T breast
[18] = tested on: HT29 colon
[19] = tested on: IGROV1 ovarian
[20] = tested on: K-562 leukemia
[21] = tested on: KM12 colon
[22] = tested on: LOX IMVI melanoma
[23] = tested on: M14 melanoma
[24] = tested on: MALME-3M melanoma
[25] = tested on: MCF7 breast
[26] = tested on: MDA-MB-231 breast
[27] = tested on: MDA-MB-435
[28] = tested on: MDA-N
[29] = tested on: NCI-H226 lung
[30] = tested on: NCI-H23 lung
[31] = tested on: NCI-H460 lung
[32] = tested on: NCI-H522 lung
[33] = tested on: NCI/ADR-RES ovarian
[34] = tested on: OVCAR-3 ovarian
[35] = tested on: OVCAR-4 ovarian
[36] = tested on: OVCAR-5 ovarian
[37] = tested on: OVCAR-8 ovarian
[38] = tested on: PC-3 prostate
[39] = tested on: RPMI-8226 leukemia
[40] = tested on: RXF 393 renal
[41] = tested on: SF-268 CNS
[42] = tested on: SF-295 CNS
[43] = tested on: SK-MEL-2 melanoma
[44] = tested on: SK-MEL-28 melanoma
[45] = tested on: SK-MEL-5 melanoma
[46] = tested on: SK-OV-3 ovarian
[47] = tested on: SN12C renal
[48] = tested on: SNB-19 CNS
[49] = tested on: SW-620 colon
[50] = tested on: T-47D breast
[51] = tested on: TK-10 renal
[52] = tested on: U251 CNS
[53] = tested on: UACC-257 melanoma
[54] = tested on: UACC-62 melanoma
[55] = tested on: UO-31 renal
[56] = tested on: MOLT-4 leukemia
[57] = tested on: SF-539 CNS
[58] = tested on: SNB-75 CNS

`CC(C(=O)c1ccncc1)c1ccccn1` (configuration not stated) was tested, and the TGI [1] was > 100 µM, the TGI [2] was > 100 µM and the TGI [3] was > 100 µM. The TGI [4] was > 100 µM, the TGI [5] was > 100 µM and the TGI [6] was > 100 µM. For the same molecule, the TGI [7] was > 100 µM, the TGI [8] was > 100 µM and the TGI [9] was > 100 µM. The TGI [10] was > 100 µM, the TGI [11] was > 100 µM and the TGI [12] was > 100 µM. The TGI [13] was > 100 µM, the TGI [14] was > 100 µM and the TGI [15] was > 100 µM. The TGI [16] was > 100 µM, the TGI [17] was > 100 µM and the TGI [18] was > 100 µM. For the same molecule, the TGI [19] was > 100 µM, the TGI [20] was > 100 µM and the TGI [21] was > 100 µM. The TGI [22] was > 100 µM, the TGI [23] was > 100 µM and the TGI [24] was > 100 µM. For the same molecule, the TGI [25] was > 100 µM, the TGI [26] was > 100 µM and the TGI [27] was > 100 µM. The TGI [28] was > 100 µM, the TGI [29] was > 100 µM and the TGI [30] was > 100 µM. For the same molecule, the TGI [31] was > 100 µM, the TGI [32] was > 100 µM and the TGI [33] was > 100 µM. For the same molecule, the TGI [34] was > 100 µM, the TGI [35] was > 100 µM and the TGI [36] was > 100 µM. The TGI [37] was > 100 µM, the TGI [38] was > 100 µM and the TGI [39] was > 100 µM. The TGI [40] was > 100 µM, the TGI [41] was > 100 µM and the TGI [42] was > 100 µM. For the same molecule, the TGI [43] was > 100 µM, the TGI [44] was > 100 µM and the TGI [45] was > 100 µM. The TGI [46] was > 100 µM, the TGI [47] was > 100 µM and the TGI [48] was > 100 µM. The TGI [49] was > 100 µM, the TGI [50] was > 100 µM and the TGI [51] was > 100 µM. For the same molecule, the TGI [52] was > 100 µM, the TGI [53] was > 100 µM and the TGI [54] was > 100 µM. The TGI [55] was > 100 µM.
With `CC1SC2(CCCCC2)N(NC(=O)CSc2nc3ccc(Cl)cc3c(=O)n2-c2ccccc2)C1=O` (configuration not stated) the TGI [1] was 34.9 µM, the TGI [2] was 81.2 µM and the TGI [3] was > 100 µM. For the same molecule, the TGI [4] was 83.9 µM, the TGI [5] was 36.4 µM and the TGI [6] was > 100 µM. The TGI [7] was > 100 µM, the TGI [8] was 29.2 µM and the TGI [9] was 85.8 µM. For the same molecule, the TGI [10] was > 100 µM, the TGI [11] was 41.8 µM and the TGI [12] was 27.2 µM. For the same molecule, the TGI [13] was 45.2 µM, the TGI [14] was 51 µM and the TGI [15] was 34.3 µM. It also gave a TGI [16] of 52.5 µM, a TGI [18] of 33 µM and a TGI [19] of 39.4 µM. For the same molecule, the TGI [20] was 73.8 µM, the TGI [21] was > 100 µM and the TGI [22] was 37.4 µM. It also gave a TGI [23] of 42.2 µM, a TGI [24] of 60.6 µM and a TGI [25] of 32.2 µM. For the same molecule, the TGI [26] was 35 µM, the TGI [27] was 54.7 µM and the TGI [28] was 36.2 µM. It also gave a TGI [56] of 47.2 µM, a TGI [30] of 57.4 µM and a TGI [31] of 42.7 µM. For the same molecule, the TGI [32] was 34.1 µM, the TGI [33] was 50.2 µM and the TGI [34] was 32.8 µM. The TGI [35] was > 100 µM, the TGI [36] was 58.4 µM and the TGI [37] was 59.1 µM. For the same molecule, the TGI [38] was 56.1 µM, the TGI [40] was 38.5 µM and the TGI [41] was 54.8 µM. It also gave a TGI [42] of 36.8 µM, a TGI [57] of 33 µM and a TGI [43] of 31.8 µM. The TGI [44] was 88.4 µM, the TGI [45] was 27.9 µM and the TGI [46] was > 100 µM. It also gave a TGI [47] of 32.5 µM, a TGI [48] of 66.9 µM and a TGI [58] of 50.4 µM. For the same molecule, the TGI [49] was 75.2 µM, the TGI [50] was > 100 µM and the TGI [51] was > 100 µM. The TGI [52] was 31.6 µM, the TGI [53] was 55.5 µM and the TGI [54] was 37.5 µM. It also gave a TGI [55] of 40.4 µM.
`CCN(CC)CCn1c(=O)c2c(C)c3oc4ccccc4oc3c(C)c2c1=O` was tested, and the TGI [1] was > 100 µM, the TGI [2] was > 100 µM and the TGI [3] was > 100 µM. The TGI [4] was > 100 µM, the TGI [5] was > 100 µM and the TGI [6] was > 100 µM. For the same molecule, the TGI [7] was > 100 µM, the TGI [8] was > 100 µM and the TGI [10] was > 100 µM. The TGI [11] was > 100 µM, the TGI [12] was > 100 µM and the TGI [13] was > 100 µM. The TGI [14] was > 100 µM, the TGI [15] was > 100 µM and the TGI [16] was > 100 µM. For the same molecule, the TGI [17] was > 100 µM, the TGI [18] was > 100 µM and the TGI [19] was > 100 µM. The TGI [20] was > 100 µM, the TGI [21] was > 100 µM and the TGI [22] was > 100 µM. For the same molecule, the TGI [23] was > 100 µM, the TGI [24] was > 100 µM and the TGI [25] was > 100 µM. For the same molecule, the TGI [26] was > 100 µM, the TGI [27] was > 100 µM and the TGI [28] was > 100 µM. For the same molecule, the TGI [56] was > 100 µM, the TGI [29] was > 100 µM and the TGI [31] was > 100 µM. The TGI [32] was > 100 µM, the TGI [33] was > 100 µM and the TGI [35] was > 100 µM. For the same molecule, the TGI [36] was > 100 µM, the TGI [37] was > 100 µM and the TGI [38] was > 100 µM. The TGI [39] was > 100 µM, the TGI [40] was > 100 µM and the TGI [41] was > 100 µM. The TGI [42] was > 100 µM, the TGI [57] was > 100 µM and the TGI [43] was > 100 µM. For the same molecule, the TGI [45] was > 100 µM, the TGI [46] was > 100 µM and the TGI [47] was > 100 µM. For the same molecule, the TGI [48] was > 100 µM, the TGI [58] was > 100 µM and the TGI [49] was > 100 µM. The TGI [51] was > 100 µM, the TGI [52] was > 100 µM and the TGI [53] was > 100 µM. For the same molecule, the TGI [54] was > 100 µM.
With `CCCCSC1=N/C(=C\c2ccc(N(C)C)cc2)C(=O)N1` the TGI [1] was 42.9 µM, the TGI [2] was 40.4 µM and the TGI [3] was 75.2 µM. The TGI [4] was > 100 µM, the TGI [5] was > 100 µM and the TGI [6] was > 100 µM. For the same molecule, the TGI [7] was > 100 µM, the TGI [8] was > 100 µM and the TGI [9] was > 100 µM. The TGI [10] was 76.5 µM, the TGI [12] was 74.9 µM and the TGI [13] was > 100 µM. The TGI [14] was > 100 µM, the TGI [15] was > 100 µM and the TGI [16] was 96.2 µM. For the same molecule, the TGI [17] was 92.1 µM, the TGI [18] was 36.8 µM and the TGI [19] was > 100 µM. The TGI [20] was > 100 µM, the TGI [21] was > 100 µM and the TGI [22] was > 100 µM. For the same molecule, the TGI [23] was > 100 µM, the TGI [24] was > 100 µM and the TGI [25] was > 100 µM. The TGI [26] was 75.8 µM, the TGI [27] was > 100 µM and the TGI [28] was > 100 µM. The TGI [56] was > 100 µM, the TGI [29] was 54.2 µM and the TGI [30] was > 100 µM. For the same molecule, the TGI [31] was 51.6 µM, the TGI [32] was 73.9 µM and the TGI [33] was > 100 µM. For the same molecule, the TGI [34] was 73.1 µM, the TGI [35] was > 100 µM and the TGI [36] was > 100 µM. For the same molecule, the TGI [37] was > 100 µM, the TGI [38] was 19.3 µM and the TGI [39] was 50.2 µM. For the same molecule, the TGI [40] was > 100 µM, the TGI [41] was > 100 µM and the TGI [42] was > 100 µM. The TGI [57] was 63.9 µM, the TGI [44] was > 100 µM and the TGI [45] was > 100 µM. For the same molecule, the TGI [46] was > 100 µM, the TGI [47] was 33.5 µM and the TGI [48] was > 100 µM. For the same molecule, the TGI [58] was > 100 µM, the TGI [49] was > 100 µM and the TGI [50] was 81.8 µM. The TGI [51] was > 100 µM, the TGI [52] was 48.2 µM and the TGI [53] was 56.7 µM. For the same molecule, the TGI [54] was 81.3 µM.
